Experimental data from PubChem BioAssay AID1259407 (Chemical Carcinogenesis Research Information System (CCRIS), 2018).
The source made the active and inactive calls. The rule behind the calls is not given here.

Tested on: CCRIS mutagenicity, Ames/micronucleus/aberration tests
Experiment: CCRIS mutagenicity studies
Settings: Test System: AMES SALMONELLA TYPHIMURIUM, Method: STANDARD PLATE

Measured: mutagenic call

CN1Cc2c(N)cccc2C(c2ccccc2)C1 (stereo not drawn)
inactive: Strain/Indicator: TA98, Metabolic Activation: NONE inactive; negative | Strain/Indicator: TA98, Metabolic Activation: RAT, LIVER, S-9, AROCLOR 1254 inactive; negative | Strain/Indicator: TA100, Metabolic Activation: NONE inactive; negative | Strain/Indicator: TA100, Metabolic Activation: RAT, LIVER, S-9, AROCLOR 1254 inactive; negative | Strain/Indicator: TA1535, Metabolic Activation: NONE inactive; negative | Strain/Indicator: TA1535, Metabolic Activation: RAT, LIVER, S-9, AROCLOR 1254 inactive; negative | Strain/Indicator: TA1537, Metabolic Activation: NONE inactive; negative | Strain/Indicator: TA1537, Metabolic Activation: RAT, LIVER, S-9, AROCLOR 1254 inactive; negative
